# Results from patent publication US8394969B2, “Cyclic benzimidazole derivatives useful as anti-diabetic agents” (Merck Sharp & Dohme Corp., priority 2008, dated 2013).
# Molecular target: recombinant human AMPK complex 1 (containing α1β1γ1) (Homo sapiens, UniProt Q13131+Q9Y478)
# Experiment: […] (in vitro AMPK activation assay)
# Assay type: biochemical
# Settings: recombinant human AMPK complex 1 (α1β1γ1); basal activity subtracted; read-out: % Maximum AMP Activation of human AMPK Complex 1
# Method: Recombinant viruses were generated by cotransfection of AMPK/pBacPak9 clones with Baculogold baculovirus DNA (Pharmingen) in spodoptera frugiperda 21 cells according to the manufacturer's instructions. Each round of virus amplification was performed for 5 days in Grace's medium containing 10% serum. Virus that had been subjected to three rounds of amplification was used for all protein production procedures. To express the AMPK complex, sf21 cells were adapted to serum free medium (SF900 II, Invitrogen) by sequential dilution from serum containing stocks into SF900 II medium and maintained in shaker flasks at 90 rpm at 27° C. The recombinant AMPK enzyme complex was produced by triple infection, one recombinant virus for each of the subunits, in sf21 cells under serum free conditions. […] Cells were harvested by centrifugation at 10,000×g for 15 minutes after 72 hours of infection with viruses. The insect cell pellet from 2 liters of culture was resuspended in 50 ml lysis buffer (20 mM Tris-HCl, 50 mM NaCl, 50 mM NaF, 30 mM Na PPi, 0.25 M sucrose, 10 mM ZnCl2, 2 mM DTT, 0.4 mg/ml digitonin) and subjected to two cycles of freeze-thaw lysis in a dry-ice ethanol bath. Insoluble material was removed by centrifugation at 10,000×g and the supernatant was fractionated with use of polyethylene glycol (PEG).
# The total in vitro AMPK activation assay volume is 50 μl in a 96-well plate. […] The reaction was initiated with addition of the enzyme. After 30-minute incubation at 30° C., the reaction was stopped by addition of 80 μl 1% H3PO4. Aliquots (100 μl) were transferred to 96-well MultiScreen plates (MAPHNOB50; Millipore Corp., Bedford, Mass., USA). The plate was washed three times with 1% H3PO4 followed by detection in a Top-count. The counts per minute from the basal activity (the reaction without activator) was subtracted from each well and the data were expressed as % maximum AMP activation followed by EC50 calculation.
# recombinant human AMPK complex 1 (containing α1β1γ1), sequence (Q13131 whole entry): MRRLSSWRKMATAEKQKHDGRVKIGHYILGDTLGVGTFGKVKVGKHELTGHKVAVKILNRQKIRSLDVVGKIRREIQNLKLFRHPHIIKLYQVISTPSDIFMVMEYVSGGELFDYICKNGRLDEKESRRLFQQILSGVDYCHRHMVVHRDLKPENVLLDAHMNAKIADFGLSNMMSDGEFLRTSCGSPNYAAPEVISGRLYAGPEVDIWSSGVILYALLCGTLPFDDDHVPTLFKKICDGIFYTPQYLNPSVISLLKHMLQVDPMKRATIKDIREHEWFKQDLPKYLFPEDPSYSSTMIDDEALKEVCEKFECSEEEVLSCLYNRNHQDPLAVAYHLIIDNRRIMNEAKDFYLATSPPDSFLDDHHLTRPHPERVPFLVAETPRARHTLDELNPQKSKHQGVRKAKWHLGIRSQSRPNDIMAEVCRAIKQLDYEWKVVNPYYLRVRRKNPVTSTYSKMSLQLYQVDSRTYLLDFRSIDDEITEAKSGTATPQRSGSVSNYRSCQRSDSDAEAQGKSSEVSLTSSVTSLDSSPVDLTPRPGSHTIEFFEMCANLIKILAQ
# recombinant human AMPK complex 1 (containing α1β1γ1), sequence (Q9Y478 whole entry): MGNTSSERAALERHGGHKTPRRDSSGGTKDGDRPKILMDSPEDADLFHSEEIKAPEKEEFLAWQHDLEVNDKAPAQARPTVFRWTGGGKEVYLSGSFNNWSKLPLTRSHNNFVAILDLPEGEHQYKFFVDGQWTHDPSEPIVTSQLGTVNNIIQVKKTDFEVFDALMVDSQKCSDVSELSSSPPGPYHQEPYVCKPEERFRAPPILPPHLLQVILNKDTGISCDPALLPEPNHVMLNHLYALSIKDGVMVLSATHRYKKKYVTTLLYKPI
# recombinant human AMPK complex 1 (containing α1β1γ1), sequence (P54619 whole entry partner): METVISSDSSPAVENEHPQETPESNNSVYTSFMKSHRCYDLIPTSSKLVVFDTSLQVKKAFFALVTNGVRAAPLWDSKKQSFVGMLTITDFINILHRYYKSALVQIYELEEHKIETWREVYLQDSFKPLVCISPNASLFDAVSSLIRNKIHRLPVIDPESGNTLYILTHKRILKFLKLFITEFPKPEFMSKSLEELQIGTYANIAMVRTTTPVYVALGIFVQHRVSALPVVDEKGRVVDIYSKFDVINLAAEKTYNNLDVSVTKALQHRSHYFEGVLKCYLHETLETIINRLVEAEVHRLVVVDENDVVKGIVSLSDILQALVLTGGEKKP
row,SMILES,Emax [%]
1,"Cc1ccc(Oc2nc3cc(C#Cc4ccc(-c5cc[nH]n5)cc4)c(Cl)cc3[nH]2)cc1C(=O)O [Example 74, 5-{6-Chloro-5-[4-(1H-pyrazol-3-yl)-phenylethynyl]-1H-benzoimidazol-2-yloxy}-2-methyl-benzoic acid]",> 80
2,"Cc1ccc(Oc2nc3cc(C#Cc4ccc(-c5cnc[nH]5)cc4)c(Cl)cc3[nH]2)cc1C(=O)O [Example 75, 5-{6-Chloro-5-[4-(3H-imidazol-4-yl)-phenylethynyl]-1H-benzoimidazol-2-yloxy}-2-methyl-benzoic acid]",> 80
3,"Cc1ccc(Oc2nc3cc(C#Cc4ccc(F)cc4F)c(Cl)cc3[nH]2)cc1C(=O)O [Example 76, 5-[6-Chloro-5-(2,4-difluoro-phenylethynyl)-1H-benzoimidazol-2-yloxy]-2-methyl-benzoic acid]",> 80
4,"Cc1ccc(Oc2nc3cc(C#Cc4ccc(-c5nnc(O)[nH]5)cc4)c(Cl)cc3[nH]2)cc1C(=O)O [Example 77, 5-{6-Chloro-5-[4-(5-hydroxy-4H-[1,2,4]triazol-3-yl)-phenylethynyl]-1H-benzoimidazol-2-yloxy}-2-methyl-benzoic acid]",> 80
5,"Cc1ccc(Oc2nc3cc(C#Cc4ccc(-c5nc[nH]n5)cc4)c(Cl)cc3[nH]2)cc1C(=O)O [Example 78, 5-{6-Chloro-5-[4-(1H-[1,2,4]triazol-3-yl)-phenylethynyl]-1H-benzoimidazol-2-yloxy}-2-methyl-benzoic acid]",> 80
6,"Cc1ccc(Oc2nc3cc(C#Cc4ccc(-c5nn[nH]n5)cc4)c(Cl)cc3[nH]2)cc1C(=O)O [Example 79, 5-{6-Chloro-5-[4-(2H-tetrazol-5-yl)-phenylethynyl]-1H-benzimidazol-2-yloxy}-2-methyl-benzoic acid]",> 80
7,"Cc1nc(-c2ccc(C#Cc3cc4nc(Oc5ccc(C)c(C(=O)O)c5)[nH]c4cc3Cl)cc2)no1 [Example 80, 5-{6-Chloro-5-[4-(5-methyl-[1,2,4]oxadiazol-3-yl)-phenylethynyl]-1H-benzoicmidazol-2-yloxy}-2-methyl-benzoic acid]",> 80
8,"Cc1ccc(Oc2nc3cc(C#Cc4ccc(-c5nc6ccccc6o5)cc4)c(Cl)cc3[nH]2)cc1C(=O)O [Example 81, 5-[5-(4-Benzooxazol-2-yl-phenylethynyl)-6-chloro-1H-benzoimidazol-2-yloxy]-2-methyl-benzoic acid]",> 80
9,"Cc1ccc(Oc2nc3cc(C#Cc4ccc(-c5cn[nH]c5)cc4)c(Cl)cc3[nH]2)cc1C(=O)O [Example 82, 5-{6-Chloro-5-[4-(1H-pyrazol-4-yl)-phenylethynyl]-1H-benzoimidazol-2-yloxy}-2-methyl-benzoic acid]",> 80
10,"Cc1ccc(Oc2nc3cc(C#Cc4ccc(-c5cscn5)cc4)c(Cl)cc3[nH]2)cc1C(=O)O [Example 83, 5-[6-Chloro-5-(4-thiazol-4-yl-phenylethynyl)-1H-benzoimidazol-2-yloxy]-2-methyl-benzoic acid]",> 80
11,"Cc1ccc(Oc2nc3cc(C#Cc4ccc(-c5nccs5)cc4)c(Cl)cc3[nH]2)cc1C(=O)O [Example 84, 5-[6-Chloro-5-(4-thiazol-2-yl-phenylethynyl)-1H-benzoimidazol-2-yloxy]-2-methyl-benzoic acid]",> 80
12,"Cc1ccc(Oc2nc3cc(C#Cc4ccc(-c5csnn5)cc4)c(Cl)cc3[nH]2)cc1C(=O)O [Example 85, 5-[6-Chloro-5-(4-[1,2,3]thiadiazol-4-yl-phenylethynyl)-1H-benzoimidazol-2-yloxy]-2-methyl-benzoic acid]",> 80
13,"Cc1ccc(Oc2nc3cc(C#Cc4ccc(-n5ccnc5)cc4)c(Cl)cc3[nH]2)cc1C(=O)O [Example 86, 5-[6-Chloro-5-(4-imidazol-1-yl-phenylethynyl)-1H-benzoimidazol-2-yloxy]-2-methyl-benzoic acid]",> 80
14,"Cc1ccc(Oc2nc3cc(C#Cc4ccncc4)c(Cl)cc3[nH]2)cc1C(=O)O [Example 87, 5-(6-Chloro-5-pyridin-4-ylethynyl-1H-benzoimidazol-2-yloxy)-2-methyl-benzoic acid]",> 80
15,"Cc1ccc(Oc2nc3cc(C#Cc4ccc(C(O)C5CC5)cc4)c(Cl)cc3[nH]2)cc1C(=O)O (stereo not shown) [Example 88, 5-{6-Chloro-5-[4-(cyclopropyl-hydroxy-methyl)-phenylethynyl]-1H-benzoimidazol-2-yloxy}-2-methyl-benzoic acid]",> 80
16,"Cc1ccc(Oc2nc3cc(C#Cc4ccc(C5(O)CC5)cc4)c(Cl)cc3[nH]2)cc1C(=O)O [Example 89, 5-{6-Chloro-5-[4-(1-hydroxy-cyclopropyl)-phenylethynyl]-1H-benzoimidazol-2-yloxy}-2-methyl-benzoic acid]",> 80

row,SMILES,Emax [%]
1,"Cc1ccc(Oc2nc3cc(C#Cc4ccc(-c5ccccn5)cc4)c(Cl)cc3[nH]2)cc1C(=O)O [Example 90, 5-[6-Chloro-5-(4-pyridin-2-yl-phenylethynyl)-1H-benzoimidazol-2-yloxy]-2-methyl-benzoic acid]",> 80
2,"COC(=O)c1ccc(C#Cc2cc3nc(Oc4ccc(C)c(C(=O)O)c4)[nH]c3cc2Cl)cc1 [Example 91, 5-[6-Chloro-5-(4-methoxycarbonyl-phenylethynyl)-1H-benzoimidazol-2-yloxy]-2-methyl-benzoic acid]",> 80
3,"Cc1ccc(Oc2nc3cc(C#Cc4ccc(C#N)cc4)c(Cl)cc3[nH]2)cc1C(=O)O [Example 92, 5-[6-Chloro-5-(4-cyano-phenylethynyl)-1H-benzoimidazol-2-yloxy]-2-methyl-benzoic acid]",> 80
4,"Cc1ccc(Oc2nc3cc(C#Cc4ccc(C(F)(F)F)cc4)c(Cl)cc3[nH]2)cc1C(=O)O [Example 93, 5-[6-Chloro-5-(4-trifluoromethyl-phenylethynyl)-1H-benzoimidazol-2-yloxy]-2-methyl benzoic acid]",> 80
5,"COc1ccc2cc(C#Cc3cc4nc(Oc5ccc(C)c(C(=O)O)c5)[nH]c4cc3Cl)ccc2c1 [Example 94, 5-[6-Chloro-5-(6-methoxy-naphthalen-2-ylethynyl)-1H-benzoimidazol-2-yloxy]-2-methyl-benzoic acid]",> 80
6,"Cc1ccc(Oc2nc3cc(C#Cc4ccc(OC(F)(F)F)cc4)c(Cl)cc3[nH]2)cc1C(=O)O [Example 95, 5-[6-Chloro-5-(4-trifluoromethoxy-phenylethynyl)-1H-benzoimidazol-2-yloxy]-2-methyl-benzoic acid]",> 80
7,"Cc1ccccc1C#Cc1cc2nc(Oc3ccc(C)c(C(=O)O)c3)[nH]c2cc1Cl [Example 96, 5-(6-Chloro-5-o-tolylethynyl-1H-benzoimidazol-2-yloxy)-2-methyl-benzoic acid]",> 80
8,"Cc1cccc(C#Cc2cc3nc(Oc4ccc(C)c(C(=O)O)c4)[nH]c3cc2Cl)c1 [Example 97, 5-(6-Chloro-5-m-tolylethynyl-1H-benzoimidazol-2-yloxy)-2-methyl-benzoic acid]",> 80
9,"COC(=O)c1cc(Oc2nc3cc(C#Cc4ccc(OC(F)(F)F)cc4)c(Cl)cc3[nH]2)ccc1C [Example 98, 5-[6-Chloro-5-(4-trifluoromethoxy-phenylethynyl)-1H-benzoimidazol-2-yloxy]-2-methyl-benzoic acid methyl ester]",> 80
10,"COC(=O)c1cc(Oc2nc3cc(C#Cc4ccccc4C)c(Cl)cc3[nH]2)ccc1C [Example 99, 5-(6-Chloro-5-o-tolylethynyl-1H-benzoimidazol-2-yloxy)-2-methyl-benzoic acid methyl ester]",> 80
11,"COC(=O)c1cc(Oc2nc3cc(C#Cc4cccc(C)c4)c(Cl)cc3[nH]2)ccc1C [Example 100, 5-(6-Chloro-5-m-tolylethynyl-1H-benzoimidazol-2-yloxy)-2-methyl-benzoic acid methyl ester]",> 80
12,"N#Cc1ccc(Oc2nc3cc(-c4ccc(-c5ccccc5)cc4)c(Cl)cc3[nH]2)cc1C#N [Example 101, 4-(5-Biphenyl-4-yl-6-chloro-1H-benzoimidazol-2-yloxy)-phthalonitrile]",> 80
13,"Cc1ccc(Oc2nc3cc(-c4ccc(-c5ccc(C(=O)O)cc5)cc4)c(Cl)cc3[nH]2)cc1C(=O)O [Example 102, 4′-[2-(3-Carboxy-4-methyl-phenoxy)-6-chloro-1H-benzoimidazol-5-yl]-biphenyl-4-carboxylic acid]",> 80
14,"Cc1ccc(Oc2nc3cc(-c4ccc(-c5ccc(C#N)cc5)cc4)c(Cl)cc3[nH]2)cc1C(=O)O [Example 103, 5-[6-Chloro-5-(4′-cyano-biphenyl-4-yl)-1H-benzoimidazol-2-yloxy]-2-methyl-benzoic acid]",> 80
15,"Cc1ccc(Oc2nc3cc(-c4ccc(-c5ccc(O)cc5)cc4)c(Cl)cc3[nH]2)cc1C(=O)O [Example 104, 5-[6-Chloro-5-(4-hydroxy-biphenyl-4-yl)-1H-benzoimidazol-2-yloxy]-2-methyl-benzoic acid]",> 80
